Source: US20030095962A1, “Chimeric cell-surface receptors that undergo antigen-induced association” (priority 1997, published 2003)

Legend:
[1] = system: Ba/HEL cells (Ba/F3 cells expressing VH/VL-EpoR chimeric receptors); assay: Antigen-dependent growth of Ba/HEL cell clones (viable cell count, trypan blue); type: cell-based, mouse
Experimental: FIG. 3 is a graph showing the relation between the concentrations of antigen n a culture medium and cell growth rates. Clone G8 was obtained by transforming Ba/F3 cells with the VH/VL EpoR vector constructs and growing in the presence of antigen. In this experiment, separate cultures of Clone G8 was cultured with different constant amounts of the antigen HEL over a 5-day period. Cell proliferation was dose-dependent, and was inducible up to at least about 5 times the rate by including antigen in the culture medium.
The clones of Ba/HEL cells were cultured with various concentrations of HEL to measure the change of the cell number over time. HEL was added in the concentrations of 0, 0.005, 0.05 and 0.5 μg/ml to the RPMI 1640 medium containing 10% FBS, seeded Ba/HEL clones with the initial concentration of 5×10^3 ml, and measured the change in the number of viable cells over time by the cell count method using trypan blue.
Cell growth was conspicuously accelerated with as low as 5 ng/ml antigen. This concentration agrees with the detectable antigen concentration in the immunoassay based on VH/VL association of HyHEL-10 Fv (Ueda et al., Nature Biotech, 14, 1714-1718, 1996). Accordingly, antigen concentration can be measured, that is, immunoassay can be performed using the level of growth of this cell as an index.

Ba/F3 cells = assay: Growth of Ba/F3 cells without expression vectors in HEL-containing medium without IL-3; type: cell-based, mouse; conditions: RPMI 1640, 10 μg/ml HEL, 10% FBS, no expression vectors introduced
Experimental: Two plasmids, PME-VHER and pME-VLER, produced in Example 1, were introduced into the cell line Ba/F3 which is derived from the interleukin-3 (IL-3) dependent mouse pro-B cells, by using electroporation method. The Ba/F3 cells (2×10^6) in the logarithmic growth period and 5 μg each of above plasmid DNAs linearized with the restriction enzyme KpnI were suspended in 100 μl HBS (Hanks' Buffered Saline: Nissui Pharmacy). Rectangular pulses, 500 volts/150 μsec, were applied 10 times using a gene introduction electric pulse generator (electrodes of 4 mm intervals, Bio-Rad). The cells was kept at room temperatures for five minutes, diluted in 4 ml RPMI 1640 culture media (Nissui Pharmacy) containing 400 μg/ml G418 (Sigma), 8 ng/ml mouse IL-3 (Genzyme) and 10% fetal bovine serum (FBS, Gibco), added into 24-well plates 1 ml each, and cultured for two weeks at 37° C. in the 5% CO2 humidified atmosphere. The resultant colonies were mixed and cultured for another three days in the same media 100 μl cell suspensions were diluted in 2 ml RPMI 1640 medium containing 10 μg/ml hen egg lysozyme (HEL, Seikagaku) and 10% FBS (Gibco) and were subcultured. The Ba/F3 cell line is known to be released from IL-3 dependency by the ectopic expression of the EPO receptor when EPO is added to the medium. […]

Substance: hen egg lysozyme [HEL]
- Cell growth in relation to the HEL concentration in the medium ([1]; Ba/HEL clone G8, similar results for all clones inspected): cell growth depends on the concentration of HEL
- Antigen concentration at which cell growth was conspicuously accelerated ([1]; Ba/HEL clones, RPMI 1640 with 10% FBS, HEL 0, 0.005, 0.05 and 0.5 μg/ml): ≤ 5 ng/mL
- Cell proliferation inducible by including antigen in the culture medium ([1]; Clone G8, different constant amounts of HEL over a 5-day period): at least 5 times the rate
- Growth of cells in HEL-containing medium (Ba/F3 cells): did not grow
